# Laboratory results reported in paper PMC7044277 (Nature Communications, 2020).
# “And” between values parts separate entries of the source, which are not always exact repeats. Equal entries are not always repeated.
# What was measured:
# Type in all cases: cell-based
# 320 non-olfactory GPCRs [1] = molecular target: T1, 320 non-olfactory GPCRs (Homo sapiens, UniProt P25089)
# T1 construct: expressed in transfected cells; host or cells: HTLA cells
# 320 non-olfactory GPCRs [2] = molecular target: T2, 320 non-olfactory GPCRs (Homo sapiens, UniProt P46091)
# T2 construct: expressed in transfected cells; host or cells: HTLA cells
# T2 sequence (P46091 whole entry): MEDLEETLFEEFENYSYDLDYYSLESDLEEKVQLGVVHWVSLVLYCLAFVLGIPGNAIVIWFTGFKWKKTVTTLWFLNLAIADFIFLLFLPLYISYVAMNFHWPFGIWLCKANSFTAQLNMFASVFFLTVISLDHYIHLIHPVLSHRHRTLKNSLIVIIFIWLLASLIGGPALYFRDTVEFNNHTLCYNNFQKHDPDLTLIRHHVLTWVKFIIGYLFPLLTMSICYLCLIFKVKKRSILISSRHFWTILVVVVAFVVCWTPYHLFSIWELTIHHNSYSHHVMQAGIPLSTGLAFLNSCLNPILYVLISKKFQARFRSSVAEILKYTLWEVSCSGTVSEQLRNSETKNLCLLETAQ
# 320 non-olfactory GPCRs [3] = molecular target: T3, 320 non-olfactory GPCRs (Homo sapiens, UniProt P48145); settings: receptor NPBW1; replicate values, Fig_4g
# T3 construct: expressed in transfected cells; host or cells: HTLA cells
# T3 sequence (P48145 whole entry): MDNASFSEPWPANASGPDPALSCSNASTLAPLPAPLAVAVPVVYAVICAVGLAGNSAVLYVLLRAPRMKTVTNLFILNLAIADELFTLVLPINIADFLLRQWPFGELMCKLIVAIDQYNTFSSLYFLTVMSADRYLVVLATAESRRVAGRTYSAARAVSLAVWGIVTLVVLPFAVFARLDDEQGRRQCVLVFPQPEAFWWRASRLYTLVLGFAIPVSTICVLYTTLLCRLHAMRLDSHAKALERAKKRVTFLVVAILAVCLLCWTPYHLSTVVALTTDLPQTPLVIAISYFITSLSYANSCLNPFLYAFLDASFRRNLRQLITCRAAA
# 320 non-olfactory GPCRs [4] = molecular target: T4, 320 non-olfactory GPCRs (Homo sapiens, UniProt Q99788)
# T4 construct: expressed in transfected cells; host or cells: HTLA cells
# T4 sequence (Q99788 whole entry): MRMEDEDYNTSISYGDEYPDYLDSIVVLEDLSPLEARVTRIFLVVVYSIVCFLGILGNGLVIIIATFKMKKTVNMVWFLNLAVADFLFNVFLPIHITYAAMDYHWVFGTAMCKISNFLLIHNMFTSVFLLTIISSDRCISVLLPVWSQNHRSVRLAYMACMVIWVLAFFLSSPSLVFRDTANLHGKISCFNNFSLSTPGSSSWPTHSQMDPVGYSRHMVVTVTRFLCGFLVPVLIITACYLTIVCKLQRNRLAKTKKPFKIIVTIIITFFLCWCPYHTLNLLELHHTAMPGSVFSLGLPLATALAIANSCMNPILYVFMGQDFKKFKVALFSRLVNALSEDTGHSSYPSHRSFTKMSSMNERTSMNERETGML
# 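For Fold of Basal in this document: compound tested at 1 µM final concentration.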
# 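For GPCRome agonism screen response in this document: fold over basal response of each receptor without drug.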
# T1 sequence (P25089 whole entry): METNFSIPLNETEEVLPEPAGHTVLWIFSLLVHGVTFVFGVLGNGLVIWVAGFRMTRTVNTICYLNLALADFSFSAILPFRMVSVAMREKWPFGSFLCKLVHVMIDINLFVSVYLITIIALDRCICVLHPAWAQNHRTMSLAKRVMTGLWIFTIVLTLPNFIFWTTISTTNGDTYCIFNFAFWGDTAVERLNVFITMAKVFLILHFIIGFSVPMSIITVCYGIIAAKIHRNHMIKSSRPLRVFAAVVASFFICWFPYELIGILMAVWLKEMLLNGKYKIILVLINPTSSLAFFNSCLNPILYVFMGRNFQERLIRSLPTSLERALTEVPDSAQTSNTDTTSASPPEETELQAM
compound,measurement,setting,value
CCOc1cccc2cc(C(C)NCC3(O)CCCCC3)oc12 (stereo not shown) [O4LE6],Fold of Basal,320 non-olfactory GPCRs [1],1.168 and 1.052 and 1.054 and 1.032
same,Fold of Basal,320 non-olfactory GPCRs [2],1.745 and 1.544 and 1.297 and 1.2172
same,GPCRome agonism screen response,320 non-olfactory GPCRs [3],1.094 and 1.2601 and 1.077 and 0.8815
same,Fold of Basal,320 non-olfactory GPCRs [4],0.9321 and 1.173 and 0.7369 and 1.152
